Results as given in PubChem BioAssay (NCI).
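Test compounds were applied to cells in 96-well plates for 48 hours at 5 doses. TGI: concentration producing complete growth inhibition.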

How the values were obtained:
Experiment in all cases: NCI-60 cell line screen, 48 h
786-0 renal = tested on: 786-0 renal
A498 renal = tested on: A498 renal
A549 NSCLC = tested on: A549 NSCLC
ACHN renal = tested on: ACHN renal
BT-549 breast = tested on: BT-549 breast
CAKI-1 renal = tested on: CAKI-1 renal
CCRF-CEM leukemia = tested on: CCRF-CEM leukemia
COLO 205 colon = tested on: COLO 205 colon
DU-145 prostate = tested on: DU-145 prostate
EKVX NSCLC = tested on: EKVX NSCLC
HCC-2998 colon = tested on: HCC-2998 colon
HCT-116 colon = tested on: HCT-116 colon
HCT-15 colon = tested on: HCT-15 colon
HL-60(TB) leukemia = tested on: HL-60(TB) leukemia
HOP-62 NSCLC = tested on: HOP-62 NSCLC
HOP-92 NSCLC = tested on: HOP-92 NSCLC
HS 578T breast = tested on: HS 578T breast
HT29 colon = tested on: HT29 colon
IGROV1 ovarian = tested on: IGROV1 ovarian
KM12 colon = tested on: KM12 colon
LOX IMVI melanoma = tested on: LOX IMVI melanoma
M14 melanoma = tested on: M14 melanoma
MALME-3M melanoma = tested on: MALME-3M melanoma
MCF7 breast = tested on: MCF7 breast
MDA-MB-231 breast = tested on: MDA-MB-231 breast
MDA-MB-435 = tested on: MDA-MB-435
MDA-N = tested on: MDA-N
MOLT-4 leukemia = tested on: MOLT-4 leukemia
NCI-H226 lung = tested on: NCI-H226 lung
NCI-H23 lung = tested on: NCI-H23 lung
NCI-H460 lung = tested on: NCI-H460 lung
NCI-H522 lung = tested on: NCI-H522 lung
NCI/ADR-RES ovarian = tested on: NCI/ADR-RES ovarian
OVCAR-3 ovarian = tested on: OVCAR-3 ovarian
OVCAR-4 ovarian = tested on: OVCAR-4 ovarian
OVCAR-5 ovarian = tested on: OVCAR-5 ovarian
OVCAR-8 ovarian = tested on: OVCAR-8 ovarian
PC-3 prostate = tested on: PC-3 prostate
RPMI-8226 leukemia = tested on: RPMI-8226 leukemia
RXF 393 renal = tested on: RXF 393 renal
SF-268 CNS = tested on: SF-268 CNS
SF-295 CNS = tested on: SF-295 CNS
SF-539 CNS = tested on: SF-539 CNS
SK-MEL-2 melanoma = tested on: SK-MEL-2 melanoma
SK-MEL-28 melanoma = tested on: SK-MEL-28 melanoma
SK-MEL-5 melanoma = tested on: SK-MEL-5 melanoma
SK-OV-3 ovarian = tested on: SK-OV-3 ovarian
SN12C renal = tested on: SN12C renal
SNB-19 CNS = tested on: SNB-19 CNS
SNB-75 CNS = tested on: SNB-75 CNS
SR leukemia = tested on: SR leukemia
SW-620 colon = tested on: SW-620 colon
T-47D breast = tested on: T-47D breast
TK-10 renal = tested on: TK-10 renal
U251 CNS = tested on: U251 CNS
UACC-257 melanoma = tested on: UACC-257 melanoma
UACC-62 melanoma = tested on: UACC-62 melanoma
UO-31 renal = tested on: UO-31 renal

Measured: TGI

COc1cc(OC)c2nc3occc3c(OC)c2c1
> 100 µM: 786-0 renal | A498 renal | A549 NSCLC | ACHN renal | BT-549 breast | CAKI-1 renal | CCRF-CEM leukemia | COLO 205 colon | DU-145 prostate | EKVX NSCLC | HCC-2998 colon | HCT-116 colon | HCT-15 colon | HL-60(TB) leukemia | HOP-62 NSCLC | HOP-92 NSCLC | HS 578T breast | HT29 colon | IGROV1 ovarian | KM12 colon | LOX IMVI melanoma | M14 melanoma | MALME-3M melanoma | MCF7 breast | MDA-MB-231 breast | MDA-MB-435 | MDA-N | MOLT-4 leukemia | NCI-H226 lung | NCI-H23 lung | NCI-H460 lung | NCI-H522 lung | NCI/ADR-RES ovarian | OVCAR-3 ovarian | OVCAR-4 ovarian | OVCAR-5 ovarian | OVCAR-8 ovarian | PC-3 prostate | RPMI-8226 leukemia | RXF 393 renal | SF-268 CNS | SF-295 CNS | SF-539 CNS | SK-MEL-2 melanoma | SK-MEL-28 melanoma | SK-MEL-5 melanoma | SK-OV-3 ovarian | SN12C renal | SNB-19 CNS | SNB-75 CNS | SR leukemia | SW-620 colon | T-47D breast | TK-10 renal | U251 CNS | UACC-257 melanoma | UACC-62 melanoma | UO-31 renal
